According to publication PMC4774911, “Biochemical Screening of Five Protein Kinases from Plasmodium falciparum against 14,000 Cell-Active Compounds” (PLoS ONE, 2016):
Where two headings read alike, the source gives them in different places.

Columns and labels:
ARAF = ARAF (Homo sapiens, UniProt P10398); experiment: biochemical
RPS6KB1 = RPS6KB1 (Homo sapiens, UniProt P23443); experiment: biochemical
TAOK1 = TAOK1 (Homo sapiens, UniProt Q7L7X3); experiment: biochemical
PRKCI = PRKCI (Homo sapiens, UniProt P41743); experiment: biochemical
MAP3K3 = target: T1, MAP3K3 (Homo sapiens, UniProt Q99759); experiment: biochemical; set-up: endogenous in cells; host or cells: K562 cell extract; species or system K562 (extract); replicate k of n = 2 (each experiment ID is one independent experiment; two experiment IDs per compound); settings: read-out: KDapp
T1 sequence (Q99759 1-626): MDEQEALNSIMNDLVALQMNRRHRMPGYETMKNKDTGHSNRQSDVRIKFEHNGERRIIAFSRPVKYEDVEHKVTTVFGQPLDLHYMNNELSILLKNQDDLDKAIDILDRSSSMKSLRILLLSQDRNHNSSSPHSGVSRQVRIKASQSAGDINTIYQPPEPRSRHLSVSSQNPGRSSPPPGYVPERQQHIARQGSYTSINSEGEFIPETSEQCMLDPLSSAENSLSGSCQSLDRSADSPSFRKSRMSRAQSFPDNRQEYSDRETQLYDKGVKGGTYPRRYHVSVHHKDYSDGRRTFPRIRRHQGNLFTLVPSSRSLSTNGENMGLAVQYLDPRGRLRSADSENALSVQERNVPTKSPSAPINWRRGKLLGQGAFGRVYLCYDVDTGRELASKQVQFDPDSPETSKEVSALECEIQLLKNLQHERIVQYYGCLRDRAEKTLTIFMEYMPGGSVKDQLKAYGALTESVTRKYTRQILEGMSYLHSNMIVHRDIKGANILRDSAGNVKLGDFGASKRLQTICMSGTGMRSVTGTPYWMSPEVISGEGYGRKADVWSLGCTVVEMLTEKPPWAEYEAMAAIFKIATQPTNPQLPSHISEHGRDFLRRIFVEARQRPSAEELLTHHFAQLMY

3D7 PFLDH [1] = test system: 3D7 PFLDH; set-up: method as in ChEMBL; settings: ref ChEMBL; cited from earlier work
3D7 PFLDH [2] = test system: 3D7 PFLDH; set-up: method as in F.J. Gamo et al., Nature 2010; settings: downloaded from ChEMBL ref F.J. Gamo et al., Nature 2010; cited from earlier work
LRRK2 = LRRK2 (Homo sapiens, UniProt Q5S007); experiment: biochemical
PLK1 = PLK1 (Homo sapiens, UniProt P53350); experiment: biochemical
HIPK2 = HIPK2 (Homo sapiens, UniProt Q9H2X6); experiment: biochemical
ILK = ILK (Homo sapiens, UniProt Q13418); experiment: biochemical
Chain of ILK (Q13418 whole entry): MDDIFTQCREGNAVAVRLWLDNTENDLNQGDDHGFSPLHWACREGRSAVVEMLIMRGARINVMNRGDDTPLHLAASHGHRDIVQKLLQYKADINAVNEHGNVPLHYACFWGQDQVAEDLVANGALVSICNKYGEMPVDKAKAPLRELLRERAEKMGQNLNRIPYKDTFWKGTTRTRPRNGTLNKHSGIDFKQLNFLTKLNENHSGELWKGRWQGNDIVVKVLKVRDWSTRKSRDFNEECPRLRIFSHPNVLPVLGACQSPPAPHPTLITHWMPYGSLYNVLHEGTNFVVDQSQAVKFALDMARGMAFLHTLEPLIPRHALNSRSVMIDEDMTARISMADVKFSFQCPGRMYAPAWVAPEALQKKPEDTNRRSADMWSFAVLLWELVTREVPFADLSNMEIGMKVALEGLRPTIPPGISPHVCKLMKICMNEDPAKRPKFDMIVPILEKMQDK

HIPK1 = HIPK1 (Homo sapiens, UniProt Q86Z02); experiment: biochemical
[3] = target: T2, Plasmodium falciparum calcium-dependent protein kinase 1 (CDPK1) (Plasmodium falciparum, UniProt P62344); experiment: CDPK1 Kinase-Glo ATP-consumption screen and dose-response; assay type: biochemical; settings: hits below 1 uM; read-out: CDPK1 IC50
T2 construct: 6-Histidine (N); made in house
T2 sequence (P62344 whole entry): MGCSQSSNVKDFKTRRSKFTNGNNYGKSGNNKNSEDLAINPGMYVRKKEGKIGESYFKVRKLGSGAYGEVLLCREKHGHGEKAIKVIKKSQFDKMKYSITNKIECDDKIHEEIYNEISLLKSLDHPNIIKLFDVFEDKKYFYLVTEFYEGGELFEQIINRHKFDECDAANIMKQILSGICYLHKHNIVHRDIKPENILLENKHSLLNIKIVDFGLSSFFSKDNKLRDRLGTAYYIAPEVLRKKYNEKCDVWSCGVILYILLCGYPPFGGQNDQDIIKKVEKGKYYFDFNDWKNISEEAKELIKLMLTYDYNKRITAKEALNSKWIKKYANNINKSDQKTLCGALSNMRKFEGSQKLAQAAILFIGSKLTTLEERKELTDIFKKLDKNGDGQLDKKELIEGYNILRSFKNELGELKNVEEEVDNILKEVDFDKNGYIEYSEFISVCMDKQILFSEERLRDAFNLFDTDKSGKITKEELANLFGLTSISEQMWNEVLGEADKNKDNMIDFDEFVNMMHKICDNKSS
Outline: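 Single-point testing used 1 μM final compound, then dose-response, against CDPK4 and CDPK1 with Syntide-2 (40 μM) as substrate. After 90 min, reactions were halted by 5 mM EGTA, and kinase activity was inferred from depleted ATP via Kinase-Glo luminescence.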

DD2 [4] = test system: DD2; set-up: method as in F.J. Gamo et al., Nature 2010; settings: P. falciparum Dd2; downloaded from ChEMBL ref F.J. Gamo et al., Nature 2010; cited from earlier work
TNK2 = TNK2 (Homo sapiens, UniProt Q07912); experiment: Kinobead competition assay in K562 extract: TNK2
Chain of TNK2 (Q07912 whole entry): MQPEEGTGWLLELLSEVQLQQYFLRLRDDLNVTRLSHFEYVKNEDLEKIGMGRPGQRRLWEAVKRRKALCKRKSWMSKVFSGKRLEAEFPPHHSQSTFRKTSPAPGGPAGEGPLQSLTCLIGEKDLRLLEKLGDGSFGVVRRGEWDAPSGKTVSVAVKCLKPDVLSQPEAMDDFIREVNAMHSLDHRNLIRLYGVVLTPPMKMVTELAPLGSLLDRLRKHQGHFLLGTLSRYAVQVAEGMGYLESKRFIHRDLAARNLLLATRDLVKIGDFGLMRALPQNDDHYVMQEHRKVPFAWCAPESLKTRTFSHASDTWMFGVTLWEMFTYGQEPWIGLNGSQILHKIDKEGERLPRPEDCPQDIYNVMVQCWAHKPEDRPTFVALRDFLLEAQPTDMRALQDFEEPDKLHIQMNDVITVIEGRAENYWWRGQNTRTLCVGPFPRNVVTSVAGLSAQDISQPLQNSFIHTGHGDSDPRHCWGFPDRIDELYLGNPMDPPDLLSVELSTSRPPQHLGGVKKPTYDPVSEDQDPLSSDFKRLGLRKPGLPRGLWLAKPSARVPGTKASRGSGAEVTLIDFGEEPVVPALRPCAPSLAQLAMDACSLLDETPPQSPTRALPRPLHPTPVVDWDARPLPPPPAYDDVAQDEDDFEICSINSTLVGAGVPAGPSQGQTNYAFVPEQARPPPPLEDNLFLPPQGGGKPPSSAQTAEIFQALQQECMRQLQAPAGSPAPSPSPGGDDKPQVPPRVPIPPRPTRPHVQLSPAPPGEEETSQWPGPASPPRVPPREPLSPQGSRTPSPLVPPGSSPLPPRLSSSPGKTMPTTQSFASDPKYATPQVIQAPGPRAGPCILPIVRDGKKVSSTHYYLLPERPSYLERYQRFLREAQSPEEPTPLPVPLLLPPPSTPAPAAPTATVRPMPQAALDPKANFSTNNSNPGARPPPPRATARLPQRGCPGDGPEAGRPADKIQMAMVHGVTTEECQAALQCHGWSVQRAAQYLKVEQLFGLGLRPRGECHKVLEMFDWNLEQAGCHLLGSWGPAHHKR
Experimental: Kinobeads were prepared as described [25, 26]. […] Briefly, Kinobeads were washed and equilibrated in lysis buffer (50 mM Tris-Cl, pH 7.4, 0.4% Igepal-CA630, 1.5 mM MgCl2, 5% Glycerol, 150 mM NaCl, 25 mM NaF, 1 mM Na3VO4, 1 mM DTT, and 1 complete EDTA-free protease inhibitor tablet (Roche) per 25 ml). […] Digestion, labeling with TMT isobaric mass tags, peptide fractionation, and mass spectrometric analyses were performed essentially as described [27]. Criteria for protein quantification were: a minimum of 2 sequence assignments matching to unique peptides was required (FDR for quantified proteins <<0.1%), Mascot ion score > 15, signal to background ratio of the precursor ion > 4, signal to interference > 0.5 [28]. Reporter ion intensities were multiplied by ion accumulation time, yielding an area value proportional to the number of reporter ions present in the mass analyzer. Peptide fold changes were corrected for isotope purity as described and adjusted for interference caused by co-eluting nearly isobaric peaks as estimated by the signal-to-interference measure [29]. Protein quantification was achieved using a sum-based bootstrap algorithm [30]. Apparent dissociation constants were determined by taking into account the protein depletion by the beads as described [27].
Kinobeads were incubated with K562 cell extract either in the presence of vehicle (DMSO) or TCAMS compound, respectively (20 μM-0.03 μM). Protein kinases captured by the beads (140–150 kinases per experiment) were quantified following tryptic digestion, isobaric peptide tagging, and LC-MS/MS analysis. Kinases were identified as potential targets by virtue of their reduced capture in the presence of excess TCAMS compounds. Apparent dissociation constants (Kd’s) were calculated from the extent to which capture of each kinase was reduced at each compound concentration.

STK38L = STK38L (Homo sapiens, UniProt Q9Y2H1); experiment: biochemical
Chain of STK38L (Q9Y2H1 whole entry): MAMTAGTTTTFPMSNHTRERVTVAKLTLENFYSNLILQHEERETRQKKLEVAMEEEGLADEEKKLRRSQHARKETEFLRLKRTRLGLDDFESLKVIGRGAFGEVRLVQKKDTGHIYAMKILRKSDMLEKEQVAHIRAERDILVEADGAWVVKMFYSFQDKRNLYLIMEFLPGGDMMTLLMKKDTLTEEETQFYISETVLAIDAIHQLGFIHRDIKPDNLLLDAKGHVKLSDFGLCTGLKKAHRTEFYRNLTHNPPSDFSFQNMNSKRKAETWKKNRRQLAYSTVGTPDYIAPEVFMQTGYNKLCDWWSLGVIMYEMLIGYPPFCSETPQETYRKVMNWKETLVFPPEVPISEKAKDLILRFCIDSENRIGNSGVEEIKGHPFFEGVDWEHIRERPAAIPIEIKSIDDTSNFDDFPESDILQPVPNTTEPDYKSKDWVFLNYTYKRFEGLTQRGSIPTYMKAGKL

BMX = BMX (Homo sapiens, UniProt P51813); experiment: biochemical
Chain of BMX (P51813 whole entry): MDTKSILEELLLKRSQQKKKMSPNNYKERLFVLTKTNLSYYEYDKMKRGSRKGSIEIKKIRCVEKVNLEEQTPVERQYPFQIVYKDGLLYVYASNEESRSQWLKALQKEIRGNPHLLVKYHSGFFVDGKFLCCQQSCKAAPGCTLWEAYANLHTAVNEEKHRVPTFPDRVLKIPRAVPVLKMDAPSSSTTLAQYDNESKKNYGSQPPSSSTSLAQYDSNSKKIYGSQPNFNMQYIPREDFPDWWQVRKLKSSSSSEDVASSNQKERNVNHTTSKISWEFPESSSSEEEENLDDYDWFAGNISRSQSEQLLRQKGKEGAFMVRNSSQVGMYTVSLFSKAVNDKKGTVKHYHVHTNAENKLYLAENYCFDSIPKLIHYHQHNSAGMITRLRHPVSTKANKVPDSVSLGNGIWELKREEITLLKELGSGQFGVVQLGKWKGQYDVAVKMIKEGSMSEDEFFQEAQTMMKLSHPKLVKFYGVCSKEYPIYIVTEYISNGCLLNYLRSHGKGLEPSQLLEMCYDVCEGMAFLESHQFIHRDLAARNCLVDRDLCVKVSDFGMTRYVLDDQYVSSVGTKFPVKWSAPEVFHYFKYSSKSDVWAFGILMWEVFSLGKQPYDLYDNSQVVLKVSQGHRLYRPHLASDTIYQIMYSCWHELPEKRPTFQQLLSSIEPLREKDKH

PRKACA = PRKACA (Homo sapiens, UniProt P17612); experiment: biochemical
PIK3C3 = PIK3C3 (Homo sapiens, UniProt Q8NEB9); experiment: biochemical
KIT = KIT (Homo sapiens, UniProt P10721); experiment: biochemical
Chain of KIT (P10721 whole entry): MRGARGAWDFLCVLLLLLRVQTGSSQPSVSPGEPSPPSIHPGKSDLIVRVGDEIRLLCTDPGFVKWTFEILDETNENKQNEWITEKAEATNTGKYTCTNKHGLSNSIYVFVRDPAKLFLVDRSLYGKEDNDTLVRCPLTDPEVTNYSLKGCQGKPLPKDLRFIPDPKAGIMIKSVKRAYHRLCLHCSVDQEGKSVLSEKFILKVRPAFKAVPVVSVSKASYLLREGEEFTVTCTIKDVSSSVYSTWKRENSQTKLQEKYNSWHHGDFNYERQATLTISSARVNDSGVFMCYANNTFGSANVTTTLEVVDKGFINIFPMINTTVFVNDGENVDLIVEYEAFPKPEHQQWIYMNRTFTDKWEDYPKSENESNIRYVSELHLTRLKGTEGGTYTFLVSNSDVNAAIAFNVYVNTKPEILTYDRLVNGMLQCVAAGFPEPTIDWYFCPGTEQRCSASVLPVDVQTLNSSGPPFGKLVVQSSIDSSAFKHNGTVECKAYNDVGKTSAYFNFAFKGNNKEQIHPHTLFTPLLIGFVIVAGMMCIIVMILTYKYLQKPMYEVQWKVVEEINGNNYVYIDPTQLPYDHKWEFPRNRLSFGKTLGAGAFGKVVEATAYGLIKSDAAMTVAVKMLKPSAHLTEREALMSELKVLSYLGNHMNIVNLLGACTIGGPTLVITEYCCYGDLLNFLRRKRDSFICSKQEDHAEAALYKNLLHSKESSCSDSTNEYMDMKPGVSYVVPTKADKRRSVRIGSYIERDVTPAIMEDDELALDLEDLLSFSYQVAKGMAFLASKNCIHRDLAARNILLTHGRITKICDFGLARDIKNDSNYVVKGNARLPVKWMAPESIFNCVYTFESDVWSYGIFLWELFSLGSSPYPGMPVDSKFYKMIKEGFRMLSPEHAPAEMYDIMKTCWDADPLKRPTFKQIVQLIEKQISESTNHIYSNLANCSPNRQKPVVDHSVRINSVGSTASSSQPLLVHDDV

MAPKAPK3 = MAPKAPK3 (Homo sapiens, UniProt Q16644); experiment: biochemical
Chain of MAPKAPK3 (Q16644 whole entry): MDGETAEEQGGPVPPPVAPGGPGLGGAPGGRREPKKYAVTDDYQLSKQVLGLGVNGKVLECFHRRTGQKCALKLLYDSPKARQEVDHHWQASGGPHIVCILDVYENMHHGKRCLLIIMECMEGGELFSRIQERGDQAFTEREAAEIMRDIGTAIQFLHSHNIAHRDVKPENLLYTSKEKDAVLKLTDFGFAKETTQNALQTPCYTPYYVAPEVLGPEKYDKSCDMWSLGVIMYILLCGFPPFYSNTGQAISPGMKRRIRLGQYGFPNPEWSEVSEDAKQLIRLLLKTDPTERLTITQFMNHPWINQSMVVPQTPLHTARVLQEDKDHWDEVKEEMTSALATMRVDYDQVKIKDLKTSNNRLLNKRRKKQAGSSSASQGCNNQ

DD2 [5] = test system: DD2; set-up: method as in F.J. Gamo et al., Nature 2010; settings: downloaded from ChEMBL, ref F.J. Gamo et al., Nature 2010; cited from earlier work
[6] = TNK2, K-562 extract, conc. series 20.0-0.0uM, channel assignment not given

Chain of RPS6KB1 (P23443 whole entry): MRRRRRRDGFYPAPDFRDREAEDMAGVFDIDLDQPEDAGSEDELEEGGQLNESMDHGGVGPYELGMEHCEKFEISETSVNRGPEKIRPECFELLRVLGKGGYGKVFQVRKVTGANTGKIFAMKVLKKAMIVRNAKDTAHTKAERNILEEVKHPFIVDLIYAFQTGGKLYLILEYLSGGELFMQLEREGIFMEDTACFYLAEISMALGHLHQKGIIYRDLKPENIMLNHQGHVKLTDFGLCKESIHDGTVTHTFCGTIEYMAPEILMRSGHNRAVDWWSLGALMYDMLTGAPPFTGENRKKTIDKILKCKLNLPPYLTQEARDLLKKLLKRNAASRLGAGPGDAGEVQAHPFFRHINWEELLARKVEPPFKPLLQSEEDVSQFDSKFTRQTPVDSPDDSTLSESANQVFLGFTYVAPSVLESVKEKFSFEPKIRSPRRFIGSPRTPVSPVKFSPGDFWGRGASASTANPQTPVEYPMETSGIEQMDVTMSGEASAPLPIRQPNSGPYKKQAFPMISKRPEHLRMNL

## CN(C)CC(O)COc1ccc(Nc2ncc([N+](=O)[O-])c(Nc3ccccc3O)n2)cc1.O=C(O)C(F)(F)F (stereo not drawn) [TCMDC-141399]
ARAF
  IC50: > 20 µM
RPS6KB1
  IC50: > 20 µM
TAOK1
  IC50: 6.1 µM
PRKCI
  IC50: > 20 µM
MAP3K3
  Kd: 3.4 µM
3D7 PFLDH [1]
  PCT_INHIB_3D7_PFLDH: 0

## Cl.NCC1(c2nc(-c3ccc(Cl)c(O)c3)c(-c3ccncc3)[nH]2)CCCCC1 [TCMDC-141154]
3D7 PFLDH [2]
  PCT_INHIB_3D7_PFLDH: 0
LRRK2
  IC50: > 20 µM
PLK1
  IC50: > 20 µM
HIPK2
  IC50: > 20 µM
ILK
  IC50: > 20 µM
HIPK1
  IC50: > 20 µM
[3]
  IC50: 0.014 µM
DD2 [4]
  PCT_INHB_DD2: 98
TNK2
  IC50: > 20 µM
TNK2; TNK2, K-562 extract, conc. series 20.0, 4.0, 0.8, 0.16, 0.032, 0.0uM, channel assignment not given
  abundance relative to vehicle TMT126: 0.90
TNK2; [6]
  abundance relative to vehicle TMT127L: 1.02
  abundance relative to vehicle TMT128H: 1.06
  abundance relative to vehicle TMT129L: 1.03
  abundance relative to vehicle TMT130H: 1.20
TNK2; TNK2, kinobead competition curve
  Hill: 1

## CN1CCN(c2ccc(Nc3ncc(C#N)c(Nc4ccccc4C(N)=O)n3)cc2)CC1.Cl [TCMDC-134116]
STK38L
  IC50: 0.6 µM
BMX
  IC50: 0.62 µM
PRKACA
  IC50: 1.5 µM
PIK3C3
  IC50: 1.1 µM
KIT
  IC50: 1.3 µM
MAPKAPK3
  IC50: > 20 µM
[3]
  IC50: 0.012 µM
DD2 [5]
  PCT_INHB_DD2: 93%
MAP3K3
  Kd: 0.176 µM
